From patent US20160061841A1, “NRF2-BASED CANCER TREATMENT AND DETECTION METHODS AND USES” (CanBas Co., Ltd., priority 2014, published 2016)
“Also recorded” adds a separate entry of the source. Like-named read-outs stand apart in the source and are kept apart here.

Experiments:
[1] = tested on: H1703 Control (Ctrl)-sh and Nrf2-sh sub-lines; assay: Cell cycle distribution after SFN, CDDP and CBP501 in H1703 Ctrl-sh and Nrf2-sh sub-lines; type: cell-based, Human; conditions: SFN 24 h prior to 1 h CDDP (2.5 μg/ml)/CBP501 (1 μM)
Procedure: FIGS. 4C, 4D show Analysis of cell cycle distribution changes by using Flow-cytometry (n=4). SFN was subjected 24h to H1703 Control (Ctrl)-sh and Nrf2-sh sub-lines prior to lh treatment of CDDP (2.5 μg/m1)/CBP501 (1 μM). (FIG. 4C) Whole cell cycle distribution. (FIG. 4D) G2-M phase. An asterisk indicates statistical significance (TTEST; p<0.005). Error bars signify standard deviations as determined from four flowcytometric analyses.
Cell cycle analysis. Cells were plated in 24-well plates and incubated for 24 hours. The cells were treated with or without CDDP plus or minus CBP501 at the indicated concentration for the indicated times. The cells were harvested and stained with Krishan's solution (0.1% sodium citrate, 50 μg/ml propidium iodide, 20 μg/ml RNase A, 0.5% NP-40). Stained cells were analyzed by FACSCalibur (Becton Dickinson, Franklin Lakes, N.J.) using CELLQuest software (Becton Dickinson).
Lentivirus infection. Nrf2 shRNA lentivirus particles and Control shRNA lentivirus particles were purchased from SantaCruz. Lentivirus infection was performed according to manufacturer's instructions. Cells (50% confluence) were treated with 5 μg/ml Polybrene (SantaCruz) prior to virus infection. One day after addition of virus, the cells were transferred to fresh medium and cells were selected by treatment with Puromycin (SantaCruz). […]

Nrf2 = conditions: Western blot

`C[S+]([O-])CCCCN=C=S` (stereo not shown) [SFN, Sulforaphane] was tested, and the “Effect of SFN on CBP501's effect (cell cycle distribution, G2-M)” value ([1]; H1703 Nrf2 knock-down) was “the effect of SFN was abrogated”, the “Effect of SFN on CBP501's effect (cell cycle distribution, G2-M)” value ([1]; H1703 control shRNA) was “attenuated CBP501's effect; also recorded: cancels the effect of CBP501” and the Nrf2 protein levels (Nrf2; H1703 cells transfected with Nrf2 shRNA) was “did not cause a similar increase”. The Nrf2 protein levels (Nrf2; H1703 cells transfected with control shRNA) was “increase in a dose dependent manner”.
